Test results published in article PMC5306062, “Pharmacology and toxicology of the novel investigational agent Cantrixil (TRX-E-002-1)” (Cancer Chemotherapy and Pharmacology, 2016).
Where two headings read alike, the source gives them in different places.

Experiments:
[1] = system: disseminated ovarian cancer model; experiment: Disseminated ovarian cancer model, intraperitoneal dosing; assay type: in vivo, mice
Excerpt: In vivo, TRX-E-002-1, formulated in 20% SBECD, was active in a disseminated ovarian cancer model and a recurrent ovarian cancer model in which tumour recurrence is investigated following initial treatment of the OCSC2-inoculated mice with paclitaxel. In both models, TRX-E-002-1 inhibited tumour growth following once daily intraperitoneal administration.
The combination of TRX-E-002-1 and cisplatin was investigated in the murine model of disseminated ovarian cancer.

[2] = Rat pharmacokinetics after single intraperitoneal injection of 100 mg/kg; assay type: in vivo, Sprague–Dawley rats
Method: The pharmacokinetics of TRX-E-002-1 was evaluated in male female Sprague–Dawley rats following a single intraperitoneal injection of 100 mg/kg TRX-E-002-1 in 20% SBECD vehicle. Absorption was rapid, with C max mean plasma concentrations reached 0.25/1 h after dosing in female/male rats. […] Mean plasma levels decreased to below the limit of quantification by 24 h (not shown). The AUC0−∞ value was 29,537 and 44,702 ng h/mL in female and male rats, respectively (Table 2). High tissue levels were observed 0.5–6 h after dosing, with levels higher than the plasma concentration in pancreas, ovaries, large intestine, skin, kidneys, liver, stomach and adrenal glands (not shown). Treatment of plasma and tissue samples with glucuronidase indicated the presence of low levels of a glucuronide conjugate of TRX-E-002-1 (not shown). Other metabolic pathways have not yet been investigated. […] Parent drug was excreted in the urine and faeces, and high levels of the glucuronide metabolite were found in the faeces.
Tissue concentrations of total drug (parent + glucuronide) were also similar to those in plasma except in liver, where they were 2–3 times higher.

[3] = Second dog pharmacokinetic study, 10 mg/kg intraperitoneal, four dogs; assay type: in vivo, beagle dogs; details: dog M + F, 10 mg/kg i.p., second study
Method: In beagle dogs, plasma concentrations of unconjugated TRX-E-002-1 at early time points (1–4 h’ post-dose) were 76–93% of the total levels (parent + glucuronide). At 8 h, the plasma concentrations of the glucuronide metabolites were similar to those of parent drug. By 24 h’ post-dose, the concentrations of TRX-E-002-1-glucuronide in plasma and gastrointestinal tissues (except colon) were 2–12 times higher than those of the parent drug. The increased levels of TRX-E-0021-glucuronide relative to those of parent drug at 24 h post-dose may reflect slower elimination of the glucuronide metabolites.

[4] = Dog 14-day pilot toxicity study with toxicokinetics, intraperitoneal; details: dog M + F, Day 1
Method: For the dog 14-day pilot study, male and female beagle dogs were dosed once daily with intraperitoneal injections of vehicle (1:2 dilutions of 20% SBECD in 0.9% saline) or Cantrixil (10, 30 or 100 mg/kg) for 14 days. The doses were administered via an implanted catheter.

[5] = system: mouse lymphoma L5178Y cells; experiment: In vitro mammalian cell mutation assay, thymidine kinase locus
Method: Genotoxicity testing of TRX-E-002-1 was performed in an ICH-compliant test battery (see ICH Guideline S2A), comprising an in vitro bacterial reverse mutation test, an in vitro mammalian cell mutation assay and an in vivo rodent bone marrow micronucleus assay. The assays were performed in compliance with GLP regulations.
The in vitro mammalian cell mutation assay utilised the forward mutation system at the thymidine kinase locus of the mouse lymphoma L5178Y cells using a microtitre cloning technique. TRX-E-002-1 was tested in three experimental conditions: 3-h incubation at 37 °C with and without metabolic activation system (Aroclor-induced rat liver S9 mix), and a 24-h incubation without metabolic activation (i.e. continuous treatment).

c-Jun N-terminal kinase = system: c-Jun N-terminal kinase; parameters: method as in PMID 27196760; details: cited from earlier work
[6] = system: micronucleated polychromatic erythrocytes (PCEs) in bone marrow; experiment: Bone marrow micronucleus test; assay type: in vivo, ARC(S) Swiss mice; details: positive control group
Method: The assays were performed in compliance with GLP regulations.
The bone marrow micronucleus test was the in vivo part of the ICH genotoxicity testing battery and was conducted in ARC(S) Swiss mice. Eight groups of mice (10/sex/group) were given an intraperitoneal injection of vehicle (20% w/v SBECD) or Cantrixil at 50, 200 or 400 mg/kg and were killed 24 or 48 h later. Dimethyl-1,2 benzanthracene was used as the positive control. After preparation of the bone marrow cells, the number of micronucleated polychromatic erythrocytes (PCEs) was determined in 4000 PCEs per animal, and the proportion of PCEs in the total erythrocyte population in bone marrow was calculated from the examination of at least 500 erythrocytes as an index of bone marrow toxicity. […] The proportion of PCEs in the total erythrocyte population was decreased in both sexes at the 200 and 400 mg/kg doses at both kill times. TRX-E-002-1 is therefore considered clastogenic in this system at the described concentrations in vivo [the equivalent 200/400 mg/kg dose in a […] is 16.2 mg/kg (600 mg/m^2)/32.4 mg/kg (1200 mg/m^2) in a 60-kg human].

[7] = female rats, 100 mg/kg i.p., plasma
[8] = 10 μM SP600125, OCSC2 cells, Western blot

Question: What does the source list for `COc1cc(C2COc3c(ccc(O)c3C)C2c2ccc(O)cc2)cc(OC)c1O` (racemic) [TRX-E-002]?
Answer: tumour growth ([1]; 100 mg/kg i.p. once daily in 20% SBECD for 13–14 days): significantly inhibited; AUClast [2, 7]: 29,396 ng h/mL; C max [2, 7]: 8.355 µg/mL; elimination half-life ([2]; rats, interspecies comparison): about 2.5 h; AUC0−∞ [3]: 1.633 µg·h/mL; AUClast [3]: 1.63 µg·h/mL; C max [3]: 0.425 µg/mL; T max [3]: 2 h; T ½ [3]: 2.6 h; AUC0−∞ ([4]; 10 mg/kg i.p.): 4395 ng·h/mL; AUClast ([4]; 10 mg/kg i.p.): 4390 ng·h/mL; C max ([4]; 10 mg/kg i.p.): 0.626 µg/mL; T max ([4]; 10 mg/kg i.p.): 2.0 h; T ½ ([4]; 10 mg/kg i.p.): 2.6 h; AUC0−∞ ([4]; 30 mg/kg i.p.): 11,300 ng h/mL; AUClast ([4]; 30 mg/kg i.p.): 8770 ng·h/mL; T max ([4]; 30 mg/kg i.p.): 2.0 h; T ½ ([4]; 30 mg/kg i.p.): 2.5 h; AUC0−∞ ([4]; 100 mg/kg i.p.): 58,550 ng h/mL; AUClast ([4]; 100 mg/kg i.p.): 58,500 ng h/mL; C max ([4]; 100 mg/kg i.p.): 6.795 µg/mL; T max ([4]; 100 mg/kg i.p.): 1.25 h; T ½ ([4]; 100 mg/kg i.p.): 2.2 h

Question: Which mutant frequency [5] does the source give for `COS(C)(=O)=O` [methyl methanesulfonate] here?
Answer: expected increases

Question: Which results are given for `N.N.[Cl][Pt][Cl]` [cisplatin, reference compound]?
Answer: tumour growth during the 16-day treatment period ([1]; TRX-E-002-1 100 mg/kg once daily, cisplatin 5 mg/kg once weekly, or both): significantly inhibited; tumour growth during the 5-week post-treatment period ([1]; after 16-day treatment, TRX-E-002-1 100 mg/kg once daily, cisplatin 5 mg/kg once weekly, or both): decreased

Question: With `O=P1(N(CCCl)CCCl)NCCCO1` (centres unmarked) [cyclophosphamide] as the molecule, how does the mutant frequency ([5]; positive control, presence of S9) read?
Answer: expected increases

Question: With `Oc1c2ccccc2c2c3c(cccc13)N=N2` [SP600125] as the molecule, how does the “TRX-E-002-1-induced phosphorylation of c-Jun” value (c-Jun N-terminal kinase; [8]) read?
Answer: inhibited

Question: What about the “phosphorylation of ERK” value (c-Jun N-terminal kinase; [8]) of the same molecule?
Answer: without affecting

Question: What about the “effect on anti-tumour activity of 0.245 μM TRX-E-002-1” value (c-Jun N-terminal kinase; OCSC2 cells) of the same molecule?
Answer: blocked

Question: For `Cc1c2ccccc2c(C)c2c1ccc1ccccc12` [Dimethyl-1,2 benzanthracene, reference compound], which “frequency of micronucleated PCEs” value [6] is on record?
Answer: statistically significant increase

Question: And the “proportion of PCEs” value [6]?
Answer: reduction
